In patent publication US20230365566A1, “HETEROCYCLIC AMIDES AND THEIR USE FOR MODULATING SPLICING” (REMIX THERAPEUTICS INC., priority 2020, published 2023):

Experiments:
Assay type in all cases: cell-based
[1] = test system: HTT mRNA canonical junction (CJ); experiment: Splicing RT-qPCR assay, decrease of HTT canonical junction (CJ) mRNA; conditions: A673 or K562 cells, 24 hours compound treatment, concentration having 50% response in CJ decrease
Experimental: (§1) Compounds described herein were used to modulate RNA transcript abundance in cells. The expression of a target mRNA was measured by detecting the formation of an exon-exon junction in the canonical transcript (CJ). A compound mediated exon-inclusion event was detected by observing an increase in formation of a new junction with an alternative exon (AJ). Real-time qPCR assays were used to detect these splicing switches and interrogate the potency of various compounds towards different target genes. A high-throughput real time quantitative PCR (RT-qPCR) assay was developed to measure these two isoforms of the mRNA (CJ and AJ) for an exemplary gene, HTT, together with a control housekeeping gene, GAPDH or GUSB or PPIA, used for normalization. Briefly, the A673 or K562 cell line was treated with various compounds described herein (e.g., compounds of Formula (I)). After treatment, the levels of the HTT mRNA targets were determined from each sample of cell lysate by cDNA synthesis followed by qPCR.
(§2) The A673 cell line was cultured in DMEM with 10% FBS. Cells were diluted with full growth media and plated in a 96-well plate (15,000 cells in 100 ul media per well). The plate was incubated at 37° C. with 5% CO2 for 24 hours to allow cells to adhere. An 11-point 3-fold serial dilution of the compounds was made in DMSO then diluted in media in an intermediate plate. Compounds were transferred from the intermediate plate to the cell plate with the top dose at a final concentration of 10 uM in the well. Final DMSO concentration was kept at or below 0.25%. The cell plate was returned to the incubator at 37° C. with 5% CO2 for an additional 24 hours.
(§3) The K562 cell line was cultured in IMDM with 10% FBS. For K562, cells were diluted with full growth media and plated in either a 96-well plate (50,000 cells in 50 uL media per well) or a 384-well plate (8,000-40,000 cells in 45 uL media per well). An 11-point 3-fold serial dilution of the compounds were made in DMSO then diluted in media in an intermediate plate. Compound was transferred from the intermediate plate to the cell plate with the top dose at a final concentration of 10 uM in the well. Final DMSO concentration was kept at or below 0.25%. Final volume was 100 uL for 96-well plate and 50 uL for 384-well plate. The cell plate was then placed in an incubator at 37° C. with 5% CO2 for 24 hours.
(§4) The cells were then gently washed with 50 uL-100 uL cold PBS before proceeding to addition of lysis buffer. 30 uL-50 uL of room temperature lysis buffer with DNAse I (and optionally RNAsin) was added to each well. Cells were shaken/mixed thoroughly at room temperature for 5-10 minutes for lysis to take place and then 3 uL-5 uL of room temperature stop solution was added and wells were shaken/mixed again. After 2-5 minutes, the cell lysate plate was transferred to ice for RT-qPCR reaction setup. The lysates could also be frozen at −80° C. for later use.
(§5) In some cases, a direct lysis buffer was used. An appropriate volume of 3× lysis buffer (10 mM Tris, 150 mM NaCl, 1.5%-2.5% Igepal and 0.1-1 U/uL RNAsin, pH 7.4) was directly added to either K562 or A673 cells in media and mixed by pipetting 3 times. The plates were then incubated at room temperature with shaking/rocking for 20-50 minutes to allow for lysis to take place. After this time, the cell lysate plate was transferred to ice to set up for the RT-qPCR reactions. The lysates could also be frozen at −80° C. for later use.
(§6) To set up 10 uL RT-qPCR reactions, cell lysates were transferred to 384-well qPCR plates containing the master mix according to the table below. The plates were sealed, gently vortexed, and spun down before the run. The volumes were adjusted accordingly in some instances where the reaction was carried in 20 uL. The table below summarizes the components of the RT-qPCR reactions:
(§7) The RT-qPCR reaction was performed using a QuantStudio (ThermoFisher) under the following fast cycling conditions. […]

[2] = test system: HTT mRNA alternative junction (AJ); experiment: Splicing RT-qPCR assay, increase of HTT alternative junction (AJ) mRNA; conditions: A673 or K562 cells, 24 hours compound treatment, concentration having 50% response in AJ increase
Experimental: as §1, §2, §3, §4, §5, §6, §7

Target C CJ mRNA = experiment: Gene panel canonical junction qPCR assay, Target C; conditions: protocol of Example 42, read-out: Target C IC50 (decrease in CJ mRNA levels)
Experimental: as §1, §2, §3
(§8) The data analysis was performed by first determining the ACt vs the housekeeper gene. This ACt was then normalized against the DMSO control (AACt) and converted to RQ (relative quantification) using the 2^(−ΔΔCt) equation. The RQ were then converted to a percentage response by arbitrarily setting an assay window of 3.5 ΔCt for HTT-CJ and an assay window of 9 ΔCt for HTT-AJ. […] The percentage response was then fitted to the 4 parametric logistic equation to evaluate the concentration dependence of compound treatment. The increase in AJ mRNA is reported as AC50 (compound concentration having 50% response in AJ increase) while the decrease in CJ mRNA levels is reported as IC50 (compound concentration having 50% response in CJ decrease).
(§9) Additional studies were carried out for a larger panel of genes using the protocol provided above. The junction between flanking upstream and downstream exons was used to design canonical junction qPCR assays. At least one of the forward primer, reverse primer or the CY5-labeled 5′ nuclease probe (with 3′ quencher such as ZEN/Iowa Black FQ) was designed to overlap with the exon junction to capture the CJ mRNA transcript. BLAST was used to confirm the specificity of the probeset and parameters such as melting temperature, GC content, amplicon size, and primer dimer formation are considered during their design. Data for the decrease in CJ mRNA levels for three exemplary genes (HTT, SMN2, and Target C) analyzed in this panel are reported as IC50 (compound concentration having 50% response in CJ decrease).

SMN2 CJ mRNA = experiment: Gene panel canonical junction qPCR assay, SMN2; conditions: protocol of Example 42, read-out: SMN2 IC50 (decrease in CJ mRNA levels)
Experimental: as §1, §2, §3, §8, §9

HTT CJ mRNA = experiment: Gene panel canonical junction qPCR assay, HTT; conditions: protocol of Example 42, read-out: HTT IC50 (decrease in CJ mRNA levels)
Experimental: as §1, §2, §3, §8, §9

Row | Structure (SMILES) | AC50 [1] [µM] | AC50 [2] [µM] | IC50 (Target C CJ mRNA) [µM] | IC50 (SMN2 CJ mRNA) [µM] | IC50 (HTT CJ mRNA) [µM]
1 | Cc1cn2cc(NC(=O)c3ccc(N4CCN(C)CC4)c4cc(C)oc34)cc(F)c2n1 [Compound 189, N-[8-fluoro-2-methylimidazo [1,2-a]pyridin-6-yl]-2-methyl-4-(4-methylpiperazin-1-yl)-1-benzofuran-7-carboxamide] | 1 to 10 | 1 to 10 | 1 to 10 | < 0.1 | 1 to 10
2 | Cc1cn2cc(NC(=O)c3ccc(N4CCNC(C)C4)c4cc(C)oc34)cc(F)c2n1 (stereo not drawn) [Compound 190, N-{8-fluoro-2-methylimidazo[1,2-a]pyridin-6-yl}-2-methyl-4-(3-methylpiperazin-1-yl)-1-benzofuran-7-carboxamide] | 1 to 10 | 1 to 10 | 1 to 10 | 0.1 to 1 | 1 to 10
3 | Cc1cn2cc(NC(=O)c3ccc(N4CCN(C)C(C)C4)c4cc(C)oc34)cc(F)c2n1 (stereo not drawn) [Compound 191] | 0.1 to 1 | 1 to 10 | 1 to 10 | < 0.1 | 0.1 to 1
4 | Cc1cn2cc(NC(=O)c3ccc(N4CCNC(C)(C)C4)c4cc(C)oc34)cc(F)c2n1 [Compound 193] | 1 to 10 | 1 to 10 | > 10 | < 0.1 | 1 to 10
5 | Cc1cn2cc(NC(=O)c3ccc(N4CCNC5(CC5)C4)c4cc(C)oc34)cc(F)c2n1 [Compound 194] | 1 to 10 | 1 to 10 | > 10 | < 0.1 | 1 to 10
6 | CCNC1CCN(c2ccc(C(=O)Nc3cc(F)c4nc(C)cn4c3)c3oc(C)cc23)CC1 [Compound 196, 4-[4-(ethylamino)piperidin-1-yl]-N-[8-fluoro-2-methylimidazo[1,2-a]pyridin-6-yl]-2-methyl-1-benzofuran-7-carboxamide] | 1 to 10 | 1 to 10 | 1 to 10 | < 0.1 | 1 to 10
7 | Cc1cn2cc(NC(=O)c3ccc(N4CCC(NC(C)(C)C)CC4)c4cc(C)oc34)cc(F)c2n1 [Compound 197, 4-[4-(tert-butylamino)piperidin-1-yl]-N-[8-fluoro-2-methylimidazo[1,2-a]pyridin-6-yl]-2-methyl-1-benzofuran-7-carboxamide] | > 10 | > 10 | > 10 | 0.1 to 1 | > 10
8 | Cc1cn2cc(NC(=O)c3ccc(N4CCC(N(C)C)CC4)c4cc(C)oc34)cc(F)c2n1 [Compound 198, 4-[4-(dimethylamino)piperidin-1-yl]-N-[8-fluoro-2-methylimidazo[1,2-a]pyridin-6-yl]-2-methyl-1-benzofuran-7-carboxamide] | 0.1 to 1 | 1 to 10 | 1 to 10 | < 0.1 | 0.1 to 1
9 | Cc1cn2cc(NC(=O)c3ccc(N4CCN5CCCC5C4)c4cc(C)oc34)cc(F)c2n1 (stereo not drawn) [Compound 199, N-[8-fluoro-2-methylimidazo[1,2-a]pyridin-6-yl]-4-[hexahydro-1H-pyrrolo[1,2-a]pyrazin-2-yl]-2-methyl-1-benzofuran-7-carboxamide] | 0.1 to 1 | 0.1 to 1 | 1 to 10 | < 0.1 | 0.1 to 1
